In BindingDB's records for doi:10.1111/j.1747-0285.2009.00910.x (Universit&Agrave, 2010):

molecular target: Cannabinoid receptor 1 (Rattus norvegicus, UniProt P20272); assay: Binding Assay; details: pH 7.4; 25 °C
Experimental: CB1 competitive assay were performed in rat cerebellar membranes using [3H]WIN 55212-2 from Perkin-Elmer as a radioligand.

Sequence of Cannabinoid receptor 1 (P20272 whole entry): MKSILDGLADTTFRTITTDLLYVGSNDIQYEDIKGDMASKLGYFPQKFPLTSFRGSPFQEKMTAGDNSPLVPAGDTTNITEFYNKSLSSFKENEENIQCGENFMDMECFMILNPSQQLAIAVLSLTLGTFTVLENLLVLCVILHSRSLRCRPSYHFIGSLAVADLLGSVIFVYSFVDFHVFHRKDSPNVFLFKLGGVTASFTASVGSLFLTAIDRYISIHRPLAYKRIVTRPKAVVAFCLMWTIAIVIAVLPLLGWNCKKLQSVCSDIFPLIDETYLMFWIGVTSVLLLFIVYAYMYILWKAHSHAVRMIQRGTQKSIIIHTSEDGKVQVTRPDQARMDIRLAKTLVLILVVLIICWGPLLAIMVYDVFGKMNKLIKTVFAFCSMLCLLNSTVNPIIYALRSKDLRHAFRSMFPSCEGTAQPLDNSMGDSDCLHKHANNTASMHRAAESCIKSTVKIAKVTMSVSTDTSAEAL

SMILES | Ki [nM]
COc1ccc(/N=C2\C(=O)N(CCN3CCOCC3)c3ccccc32)cc1 [3-(Arylimino)-1-(2-morpholin-4-yl-ethyl)-1,3-dihydro-indole-2-one, 1] | 311
O=C1/C(=N\c2cccc3ccccc23)c2ccccc2N1CCN1CCOCC1 [3-(Arylimino)-1-(2-morpholin-4-yl-ethyl)-1,3-dihydro-indole-2-one, 4] | 553
Clc1ccc(NCc2cn(CCN3CCOCC3)c3ccccc23)cc1 [4-chloro-N-({1-[2-(morpholin-4-yl)ethyl]-1H-indol-3-yl}methyl)aniline, 9] | 24.1
COc1ccc(NCc2cn(CCN3CCOCC3)c3ccccc23)cc1 [4-methoxy-N-({1-[2-(morpholin-4-yl)ethyl]-1H-indol-3-yl}methyl)aniline, 7] | 42.6
Cc1ccc(NCc2cn(CCN3CCOCC3)c3ccccc23)cc1 [4-methyl-N-({1-[2-(morpholin-4-yl)ethyl]-1H-indol-3-yl}methyl)aniline, 10] | 15.7
COc1ccc(/N=C2\C(=O)N(CCN3CCOCC3)c3ccc(Cl)cc32)cc1 [5-Substituted derivative, 2] | 74.6
COc1ccc(/N=C2\C(=O)N(CCN3CCOCC3)c3ccc(C)cc32)cc1 [5-Substituted derivative, 3] | 390
O=C1/C(=N\c2cccc3ccccc23)c2cc(Cl)ccc2N1CCN1CCOCC1 [5-Substituted derivative, 5] | 8.4
Cc1ccc2c(c1)/C(=N/c1cccc3ccccc13)C(=O)N2CCN1CCOCC1 [5-Substituted derivative, 6] | 69.6
c1ccc2c(NCc3cn(CCN4CCOCC4)c4ccccc34)cccc2c1 [N-({1-[2-(morpholin-4-yl)ethyl]-1H-indol-3-yl}methyl)naphthalen-1-amine, 8] | 49.4
